In patent US20230012570A1, “BICYCLIC COMPOUND USED AS SELECTIVE ANDROGEN RECEPTOR MODULATOR” (MEDSHINE DISCOVERY INC., priority 2019, published 2023):

How the values were obtained:
Assay type in all cases: in vitro ADME
CYP2D6 = target: T1, CYP2D6 (Homo sapiens, UniProt P10635); assay: Human liver microsomal CYP inhibition experiment, CYP2D6
T1 construct: Mixed human liver microsomes (HLM) were purchased from Corning Inc; tissue Corning Inc. or XenoTech, LLC. or other suppliers; host or cells: pooled human liver microsomes
T1 sequence (P10635 whole entry): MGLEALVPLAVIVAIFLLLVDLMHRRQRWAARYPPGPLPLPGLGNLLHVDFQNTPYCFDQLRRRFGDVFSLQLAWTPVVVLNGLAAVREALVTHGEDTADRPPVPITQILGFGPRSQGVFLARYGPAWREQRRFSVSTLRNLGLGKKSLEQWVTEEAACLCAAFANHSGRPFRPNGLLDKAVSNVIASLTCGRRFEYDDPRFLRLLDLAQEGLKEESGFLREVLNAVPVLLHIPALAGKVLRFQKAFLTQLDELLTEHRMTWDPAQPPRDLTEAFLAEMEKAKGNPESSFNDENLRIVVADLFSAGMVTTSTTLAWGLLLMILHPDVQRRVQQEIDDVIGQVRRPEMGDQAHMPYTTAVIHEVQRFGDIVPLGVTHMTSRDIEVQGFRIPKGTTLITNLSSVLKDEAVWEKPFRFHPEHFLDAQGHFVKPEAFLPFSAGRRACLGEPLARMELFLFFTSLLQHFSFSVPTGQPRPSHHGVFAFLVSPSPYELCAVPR
Procedure: (§1) Experiment Embodiment 4: Human Liver Microsomal CYP Inhibition Experiment
(§2) The inhibitory effects of the test compound 3A and VK5211 on the activities of human liver microsomal cytochrome P450 isozymes (CYP1A2, CYP2C9, CYP2C19, CYP2D6 and CYP3A4) were determined.
(§3) Mixed human liver microsomes (HLM) were purchased from Corning Inc. (Steuben, New York, USA) or XenoTech, LLC. (Lenexa, Kans., USA) or other suppliers, and were stored at a temperature below −60° C. before use.
(§4) First, the test compound (10.0 mM) was gradient diluted to prepare working solution (100×final concentration), and the concentrations of the working solution were: 5.00, 1.50, 0.500, 0.150, 0.0500, 0.0150, 0.00500 mM, and a working solution of each positive inhibitor of P450 isozymes (CYP1A2, CYP2C9, CYP2C19, CYP2D6, and CYP3A4) and a specific substrate mixture thereof (5 in 1) were prepared at the same time; human liver microsomes stored in a refrigerator at a temperature lower than −60° C. were put on ice to thaw, and when all the human liver microsomes were dissolved, the microsomes were diluted with potassium phosphate buffer (PB) to prepare a working solution of a certain concentration (0.253 mg/mL). […] The concentration of metabolites produced by the probe substrate in the sample was determined by liquid chromatography-tandem mass spectrometry (LC-MS/MS) method. […]

CYP1A2 = target: T2, CYP1A2 (Homo sapiens, UniProt P05177); assay: Human liver microsomal CYP inhibition experiment, CYP1A2
T2 construct: Mixed human liver microsomes (HLM) were purchased from Corning Inc; tissue Corning Inc. or XenoTech, LLC. or other suppliers; host or cells: pooled human liver microsomes
T2 sequence (P05177 1-516): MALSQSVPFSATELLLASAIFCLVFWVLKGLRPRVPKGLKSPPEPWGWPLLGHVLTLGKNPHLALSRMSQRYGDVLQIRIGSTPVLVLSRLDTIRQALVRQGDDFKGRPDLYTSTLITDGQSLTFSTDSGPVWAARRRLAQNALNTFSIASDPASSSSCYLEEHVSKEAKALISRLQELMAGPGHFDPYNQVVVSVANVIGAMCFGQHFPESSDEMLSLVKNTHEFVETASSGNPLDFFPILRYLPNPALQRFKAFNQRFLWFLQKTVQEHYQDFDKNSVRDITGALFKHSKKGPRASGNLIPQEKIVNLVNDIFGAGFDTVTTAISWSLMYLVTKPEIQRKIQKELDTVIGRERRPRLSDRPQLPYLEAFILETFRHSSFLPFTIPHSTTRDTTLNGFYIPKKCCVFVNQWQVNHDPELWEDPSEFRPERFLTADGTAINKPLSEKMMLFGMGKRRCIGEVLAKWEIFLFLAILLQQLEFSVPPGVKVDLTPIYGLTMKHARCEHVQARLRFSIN
Procedure: as §1, §2, §3, §4

CYP3A4 = target: T3, CYP3A4 (Homo sapiens, UniProt P08684); assay: Human liver microsomal CYP inhibition experiment, CYP3A4
T3 construct: Mixed human liver microsomes (HLM) were purchased from Corning Inc; tissue Corning Inc. or XenoTech, LLC. or other suppliers; host or cells: pooled human liver microsomes
T3 sequence (P08684 whole entry): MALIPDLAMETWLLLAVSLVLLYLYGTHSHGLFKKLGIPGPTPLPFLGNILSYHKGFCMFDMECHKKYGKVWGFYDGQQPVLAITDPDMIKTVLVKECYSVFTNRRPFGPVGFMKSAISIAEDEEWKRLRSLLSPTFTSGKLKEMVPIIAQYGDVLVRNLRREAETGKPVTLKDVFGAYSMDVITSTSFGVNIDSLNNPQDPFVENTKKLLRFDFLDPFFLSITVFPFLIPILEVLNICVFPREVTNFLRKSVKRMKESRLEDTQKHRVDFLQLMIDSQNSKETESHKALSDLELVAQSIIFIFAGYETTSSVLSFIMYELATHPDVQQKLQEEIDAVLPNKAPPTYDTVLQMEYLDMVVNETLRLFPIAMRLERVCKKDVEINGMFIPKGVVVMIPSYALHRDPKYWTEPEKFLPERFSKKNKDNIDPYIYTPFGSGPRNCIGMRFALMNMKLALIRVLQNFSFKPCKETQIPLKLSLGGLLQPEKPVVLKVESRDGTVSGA
Procedure: as §1, §2, §3, §4

CYP2C19 = target: T4, CYP2C19 (Homo sapiens, UniProt P33261); assay: Human liver microsomal CYP inhibition experiment, CYP2C19
T4 construct: Mixed human liver microsomes (HLM) were purchased from Corning Inc; tissue Corning Inc. or XenoTech, LLC. or other suppliers; host or cells: pooled human liver microsomes
T4 sequence (P33261 whole entry): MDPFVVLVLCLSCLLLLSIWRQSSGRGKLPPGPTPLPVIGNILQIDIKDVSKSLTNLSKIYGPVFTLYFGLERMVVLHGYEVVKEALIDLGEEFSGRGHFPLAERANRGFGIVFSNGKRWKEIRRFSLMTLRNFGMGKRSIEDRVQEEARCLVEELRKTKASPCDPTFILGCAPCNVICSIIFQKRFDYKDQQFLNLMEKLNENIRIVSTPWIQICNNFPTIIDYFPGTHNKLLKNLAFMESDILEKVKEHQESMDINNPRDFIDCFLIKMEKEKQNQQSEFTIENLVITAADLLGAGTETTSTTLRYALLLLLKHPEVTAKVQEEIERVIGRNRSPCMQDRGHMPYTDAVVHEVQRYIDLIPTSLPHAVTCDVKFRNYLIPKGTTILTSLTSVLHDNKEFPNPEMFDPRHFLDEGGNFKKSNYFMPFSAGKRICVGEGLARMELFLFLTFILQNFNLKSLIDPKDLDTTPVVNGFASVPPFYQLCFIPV
Procedure: as §1, §2, §3, §4

CYP2C9 = target: T5, CYP2C9 (Homo sapiens, UniProt P11712); assay: Human liver microsomal CYP inhibition experiment, CYP2C9
T5 construct: Mixed human liver microsomes (HLM) were purchased from Corning Inc; tissue Corning Inc. or XenoTech, LLC. or other suppliers; host or cells: pooled human liver microsomes
T5 sequence (P11712 whole entry): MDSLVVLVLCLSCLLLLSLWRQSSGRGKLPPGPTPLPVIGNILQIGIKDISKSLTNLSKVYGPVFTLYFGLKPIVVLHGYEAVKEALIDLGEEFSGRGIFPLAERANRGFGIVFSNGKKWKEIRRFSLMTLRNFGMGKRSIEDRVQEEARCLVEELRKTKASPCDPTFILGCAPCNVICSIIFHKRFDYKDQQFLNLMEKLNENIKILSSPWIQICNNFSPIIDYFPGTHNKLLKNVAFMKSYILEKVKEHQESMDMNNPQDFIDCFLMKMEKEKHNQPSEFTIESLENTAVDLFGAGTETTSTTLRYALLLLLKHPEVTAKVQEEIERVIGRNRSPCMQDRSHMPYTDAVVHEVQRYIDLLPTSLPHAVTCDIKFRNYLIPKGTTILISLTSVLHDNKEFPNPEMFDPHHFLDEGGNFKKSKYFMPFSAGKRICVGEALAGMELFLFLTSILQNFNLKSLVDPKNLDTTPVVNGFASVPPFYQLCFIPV
Procedure: as §1, §2, §3, §4

N#Cc1ccc(N2CCC[C@@H]2[C@@H](O)C(F)(F)F)cc1C(F)(F)F [VK5211, reference compound]
IC50 (CYP2D6): 7.67 µM | IC50 (CYP1A2): 4.44 µM | IC50 (CYP3A4): 44.7 µM | IC50 (CYP2C19): 4.23 µM | IC50 (CYP2C9): 5.84 µM
